Source: US7262204B2, “Modulation of CCR4 function” (Amgen Inc., priority 2000, dated 2007)
pIC50: −log10 of the molar value.

molecular target: T1, CCR4 (Homo sapiens, UniProt P51679); assay: CCR4 binding assay (inhibition of 125I-TARC binding to cells expressing CCR4); conditions: CCR4 antagonist activity
T1 construct: host or cells: CEM cells
T1 sequence (P51679 1-360): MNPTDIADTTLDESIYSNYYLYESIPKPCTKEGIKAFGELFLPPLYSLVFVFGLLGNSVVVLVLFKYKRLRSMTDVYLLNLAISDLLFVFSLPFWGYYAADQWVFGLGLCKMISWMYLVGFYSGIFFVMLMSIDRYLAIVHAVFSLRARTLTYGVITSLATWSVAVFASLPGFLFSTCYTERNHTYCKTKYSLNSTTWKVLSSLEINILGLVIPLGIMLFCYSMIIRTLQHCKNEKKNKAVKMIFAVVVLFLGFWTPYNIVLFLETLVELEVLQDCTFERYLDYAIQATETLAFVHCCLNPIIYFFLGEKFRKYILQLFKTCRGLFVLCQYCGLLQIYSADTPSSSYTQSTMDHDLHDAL
Text: This example illustrates a CCR4 binding assay that can be used for evaluating the compounds of the present invention.
Detection of Radiolabelled TARC and/or MDC Binding to CCR4
^125I-labelled TARC and MDC are available from commercial sources (e.g., Amersham-Pharmacia or Perkin Elmer Life Sciences). All buffers and materials are available from commercial sources (e.g., Gibco BRL, Sigma). To measure binding of ^125I-TARC or ^125I-MDC to cells expressing CCR4 (e.g., CEM cells, available from the ATCC), the ^125I-TARC or ^125I-MDC is diluted to a concentration of approximately 200 pM in a buffered saline solution (e.g., RPMI supplemented with 0.5% bovine serum albumin), and added to an equal volume of a suspension of cells (e.g., CEM cells at 5×10^6 cells/mL). The resulting mixture is incubated for a period of time (e.g., 2 hours). The unbound ^125I-TARC or ^125I-MDC is separated from the cells by filtration, e.g., by passage through GF/B filter plate (Packard Biosciences) pre-treated with 0.3% polyethyleneimine (Sigma), using a Packard Filtermate 96 (Packard Biosciences). The amount of ^125I-TARC or ^125I-MDC retained with the cells on the filterplate is measured by adding a small amount of scintillation fluid (e.g., 50 μL of Microscint-20, obtained from Packard Biosciences), and reading scintillation on appropriate detection equipment, e.g., a Packard TopCount 383 (Packard Biosciences).
Non-specific binding of ^125I-TARC or ^125I-MDC can be estimated by measuring the amount of ^125I-TARC or ^125I-MDC retained with the cells on the filterplate when the assay is performed in the presence of a large excess of unlabelled TARC or MDC.
Inhibition of ^125I-TARC or ^125I-MDC binding to CCR4 is defined as a decrease in the retention of ^125I-TARC or ^125I-MDC to the cells on the filterplate.
The assay described above varies only moderately from standardly used procedures, e.g., Imai et al. (1997) J. Biol. Chem. 272:15036-15042, Imai et al. (1998) J. Biol. Chem. 273:1764-1768.

pIC50	Compound
< 6.00	CC(C)CN(Cc1csc(Nc2cccc3ccccc23)n1)CC(C)C [Compound 15]
< 6.00	CC(C)CN(CC(C)C)C(C)c1csc(Nc2cccc3ccccc23)n1 (stereo not shown) [Compound 18]
< 6.00	c1ccc(CN2CCc3sc(Nc4cccc5ccccc45)nc3C2)cc1 [Compound 20]

Compound	pIC50
Clc1ccc2nc(Nc3cccc4ccccc34)sc2c1 [Compound 19]	> 6.00
